In brackets after ≈: the same amount, converted by molar mass. Read-outs that look alike come from different tables or passages of the source. One block for each molecule: values may come before it. Non-standard residues stand in square brackets, D forms with d. Residues, ends and D or L forms follow the SMILES beside them. *: point of attachment. Decanoyl = CCCCCCCCCC(=O)*; dOrn = NCCC[C@@H](N)C(=O)O; Orn = NCCC[C@H](N)C(=O)O
Key:
Bacillus subtilis = format: cell-based; conditions: 24 h
Procedure: (§1) Wang resins were purchased from Matrix Innovation. Reagents for peptide synthesis were purchased from P3 BioSystems, Chempep, and Chem-Impex International. The fluorescent dyes DiBAC4 and SYTOX were purchased from Thermo Fisher Scientific, and media were prepared from premixed powders: brain heart infusion for S. sobrinus and L. rhamnosus (Hardy Diagnostics), yeast extract-peptone-dextrose for C. albicans, lysogeny broth (LB) for all other bacteria (BD Biosciences), and McCoy’s 5A medium with 10% fetal bovine serum for HT-29 cells (American Type Culture Collection). All other chemicals and consumables were purchased from Sigma-Aldrich and VWR International. Paenimucillin 4F for in vivo studies was purchased from Ontores Biotechnologies as a high-performance liquid chromatography (HPLC)-purified peptide and used as is. Dye assays were performed in a Gen5 microtiter plate reader (Biotek Instruments). Liquid chromatography-mass spectrometry (LC-MS) analyses were performed by using an Acquity system (Waters Corporation).
(§2) Standard susceptibility assays were performed in LB medium in 96-well microtiter plates to determine the MIC by the broth microdilution method in accordance with protocols recommended by Clinical and Laboratory Standards Institute ([35]). Cytotoxicity was assessed using human HT-29 cells based on a similar broth microdilution method ([36]). All assays were performed in duplicate. For the cytotoxicity assay, 5,000 HT-29 cells per well were seeded into a microtiter plate and cultured for 24 h at 37°C in a 5% CO2 atmosphere. Peptides were supplemented at concentrations ranging from 128 to 0.5 μg/ml, and the cells were incubated for another 20 h. Growth media were removed, 3-(4,5-dimethylthiazol-2-yl)-2,5-diphenyltetrazolium bromide (MTT) was added to all wells (220 μl per well at 0.5 mg/ml), the mixture was incubated for 4 h, and then the media were discarded. Cell viability was determined by visual inspection.

Lactobacillus rhamnosus = format: cell-based; conditions: 24 h
Procedure: as §1, §2

Staphylococcus aureus = format: cell-based; conditions: 24 h
Procedure: as §1, §2

Enterococcus faecium = format: cell-based
Procedure: as §1, §2

Streptococcus sobrinus = format: cell-based; conditions: 24 h
Procedure: as §1, §2

Acinetobacter baumannii = format: cell-based
Procedure: as §1, §2

Enterococcus faecalis = format: cell-based; conditions: 24 h
Procedure: as §1, §2

[1] = test system: A. baumannii clinical isolate S3; format: cell-based, Acinetobacter baumannii; conditions: clinical isolate S3, 24 h
Procedure: as §1, §2

[2] = test system: A. baumannii clinical isolate 1788; format: cell-based, Acinetobacter baumannii; conditions: clinical isolate 1788, 24 h
Procedure: as §1, §2

[3] = test system: A. baumannii clinical isolate S5; format: cell-based, Acinetobacter baumannii; conditions: clinical isolate S5, 24 h
Procedure: as §1, §2

[4] = test system: A. baumannii clinical isolate 1795; format: cell-based, Acinetobacter baumannii; conditions: clinical isolate 1795, 24 h
Procedure: as §1, §2

[5] = test system: A. baumannii clinical isolate 1791; format: cell-based, Acinetobacter baumannii; conditions: clinical isolate 1791, 24 h
Procedure: as §1, §2

[6] = test system: A. baumannii clinical isolate 1797; format: cell-based, Acinetobacter baumannii; conditions: clinical isolate 1797, 24 h
Procedure: as §1, §2

[7] = test system: A. baumannii clinical isolate 1790; format: cell-based, Acinetobacter baumannii; conditions: clinical isolate 1790, 24 h
Procedure: as §1, §2

C. albicans = assay: Toxicity assessment, MIC against C. albicans; format: cell-based, Candida albicans; conditions: Brady lab strain; yeast extract-peptone-dextrose; surrogate for cytotoxicity; duplicate
Procedure: as §1, with “Liquid chromatography-mass spectrometry (LC-MS) analyses were performed by using an Acquity system (Waters Corporation).” left out
Standard susceptibility assays were performed in LB medium in 96-well microtiter plates to determine the MIC by the broth microdilution method in accordance with protocols recommended by Clinical and Laboratory Standards Institute ([35]). Cytotoxicity was assessed using human HT-29 cells based on a similar broth microdilution method ([36]). […] Cell viability was determined by visual inspection.

Pseudomonas aeruginosa = format: cell-based; conditions: 24 h
Procedure: as §1, §2

Enterobacter cloacae = format: cell-based; conditions: 24 h
Procedure: as §1, §2

Klebsiella pneumoniae = format: cell-based; conditions: 24 h
Procedure: as §1, §2

[8] = test system: MDR A. baumannii strain AB5075; assay: microbe, parasite or virus in culture; format: cell-based, Acinetobacter baumannii; conditions: Acinetobacter baumannii; MDR strain AB5075; read-out: in vitro MIC, A. baumannii AB5075
Procedure: as §2

[9] = test system: MDR A. baumannii strain AB5075; assay: Rat cutaneous wound model, efficacy; format: in vivo, Sprague-Dawley rats; conditions: rat wound infected with AB5075 (500 CFU); topical 10 mg/ml twice daily from 0.5 h postinoculation; four wounds, ±1 SD
Procedure: The rat cutaneous wound model was used as described previously ([21]). Protocols for animal studies were approved by the Rutgers University Institutional Animal Care and Use Committee. All animals were humanely euthanized at the study endpoint by following the AVMA Guidelines for the Euthanasia of Animals. Immunocompetent Sprague-Dawley female rats (~200 g) were anesthetized by intraperitoneal injection of 100 mg/kg ketamine plus 10 mg/kg xylazine. Using a 1.0-cm-diameter disposable biopsy punch, two symmetrical wounds were created on the dorsum of each rat. A circular gauze dressing 8 mm in diameter was saturated overnight with either vehicle or 4F at 10 mg/ml in sterile centrifuge tubes. To assess tolerability, the rats were weighed daily and observed for wound healing, behavior changes, and visible adverse drug effects for 5 days. To assess efficacy, A. baumannii strain AB5075 was grown overnight and the culture was diluted to provide the challenge inoculum (500 CFU) as 50 μl of bacterial suspension in 0.9% (wt/vol) NaCl. A circular gauze dressing 8 mm in diameter was saturated overnight with vehicle, tetracycline, or 4F at 10 mg/ml in sterile centrifuge tubes. These saturated dressings were topically applied to the wound site with sterile forceps twice daily, starting at 30 min postinoculation, for 6 days. Rats were observed twice daily for morbidity and possible signs of acute toxicity. Two and four independent cutaneous wounds were tested in tolerability and efficacy assessments, respectively.

MIC Bacillus subtilis (Bacillus subtilis): 4 µg/mL (≈ 2.45 µM)
MIC Lactobacillus rhamnosus (Lactobacillus rhamnosus): 16 µg/mL (≈ 9.82 µM)
MIC Staphylococcus aureus (Staphylococcus aureus): 16 µg/mL (≈ 9.82 µM)
MIC Enterococcus faecium (Enterococcus faecium; strain Com15, LB medium, broth microdilution, duplicate): 4 µg/mL (≈ 2.45 µM)
MIC Streptococcus sobrinus (Streptococcus sobrinus): 2 µg/mL (≈ 1.23 µM)
MIC Acinetobacter baumannii (Acinetobacter baumannii; strain ATCC 17978, LB medium, broth microdilution, duplicate): 16 µg/mL (≈ 9.82 µM)
MIC Enterococcus faecalis (Enterococcus faecalis): 32 µg/mL (≈ 19.6 µM)
Compound: CCCCCCCCCC(=O)N[C@H](Cc1ccccc1)C(=O)N[C@H](CCCN)C(=O)N[C@@H](C(=O)N[C@H](CO)C(=O)N[C@H](Cc1ccccc1)C(=O)N[C@@H](CO)C(=O)N[C@@H](CO)C(=O)N[C@H](CCCN)C(=O)N[C@@H](Cc1ccccc1)C(=O)N[C@@H](CO)C(=O)N[C@H](C(=O)N[C@@H](C(=O)N[C@@H](CCCN)C(=O)O)[C@H](C)CC)C(C)C)[C@H](C)CC [1F, paenimucillin A] (Decanoyl-[dF][dOrn][dI][dS][dF]SS[dOrn]FSV[dI][Orn]-OH)

MIC Bacillus subtilis (Bacillus subtilis): 16 µg/mL (≈ 9.37 µM)
MIC Lactobacillus rhamnosus (Lactobacillus rhamnosus): 2 µg/mL (≈ 1.17 µM)
MIC Staphylococcus aureus (Staphylococcus aureus): 64 µg/mL (≈ 37.5 µM)
MIC Enterococcus faecium (Enterococcus faecium; 24 h): 4 µg/mL (≈ 2.34 µM)
MIC Streptococcus sobrinus (Streptococcus sobrinus): 1 µg/mL (≈ 0.585 µM)
MIC Acinetobacter baumannii (Acinetobacter baumannii; 24 h): 128 µg/mL (≈ 74.9 µM)
MIC Enterococcus faecalis (Enterococcus faecalis): 128 µg/mL (≈ 74.9 µM)
Compound: CCCCCCCCCC(=O)N[C@H](Cc1ccccc1)C(=O)N[C@H](CCCN)C(=O)N[C@@H](C(=O)N[C@H](CO)C(=O)N[C@H](Cc1c[nH]c2ccccc12)C(=O)N[C@@H](CO)C(=O)N[C@@H](CO)C(=O)N[C@H](CCCN)C(=O)N[C@@H](Cc1c[nH]c2ccccc12)C(=O)N[C@@H](CO)C(=O)N[C@H](C(=O)N[C@@H](C(=O)N[C@@H](CCCN)C(=O)O)[C@H](C)CC)C(C)C)[C@H](C)CC [1W, paenimucillin B] (Decanoyl-[dF][dOrn][dI][dS][dW]SS[dOrn]WSV[dI][Orn]-OH)

MIC Pseudomonas aeruginosa (Pseudomonas aeruginosa): 64 µg/mL (≈ 43.4 µM)
MIC Bacillus subtilis (Bacillus subtilis): 16 µg/mL (≈ 10.8 µM)
MIC Lactobacillus rhamnosus (Lactobacillus rhamnosus): 128 µg/mL (≈ 86.7 µM)
MIC Staphylococcus aureus (Staphylococcus aureus): 64 µg/mL (≈ 43.4 µM)
MIC Enterococcus faecium (Enterococcus faecium; 24 h): 32 µg/mL (≈ 21.7 µM)
MIC Streptococcus sobrinus (Streptococcus sobrinus): 64 µg/mL (≈ 43.4 µM)
MIC Enterobacter cloacae (Enterobacter cloacae): 8 µg/mL (≈ 5.42 µM)
MIC Klebsiella pneumoniae (Klebsiella pneumoniae): 4 µg/mL (≈ 2.71 µM)
MIC Acinetobacter baumannii (Acinetobacter baumannii; 24 h): 32 µg/mL (≈ 21.7 µM)
MIC Enterococcus faecalis (Enterococcus faecalis): 32 µg/mL (≈ 21.7 µM)
Compound: CC[C@@H](C)[C@@H](NC(=O)[C@@H](NC(=O)[C@H](CO)NC(=O)[C@H](Cc1ccccc1)NC(=O)[C@@H](CCCN)NC(=O)[C@H](CO)NC(=O)[C@H](CO)NC(=O)[C@@H](Cc1ccccc1)NC(=O)[C@@H](CO)NC(=O)[C@H](NC(=O)[C@@H](CCCN)NC(=O)[C@H](N)Cc1ccccc1)[C@H](C)CC)C(C)C)C(=O)N[C@@H](CCCN)C(=O)O [5F] (H-[dF][dOrn][dI][dS][dF]SS[dOrn]FSV[dI][Orn]-OH)

More lines, now with the values behind:

Compound: CC[C@@H](C)[C@@H](NC(=O)[C@@H](NC(=O)[C@H](CO)NC(=O)[C@H](Cc1c[nH]c2ccccc12)NC(=O)[C@@H](CCCN)NC(=O)[C@H](CO)NC(=O)[C@H](CO)NC(=O)[C@@H](Cc1c[nH]c2ccccc12)NC(=O)[C@@H](CO)NC(=O)[C@H](NC(=O)[C@@H](CCCN)NC(=O)[C@@H](Cc1ccccc1)NC(C)=O)[C@H](C)CC)C(C)C)C(=O)N[C@@H](CCCN)C(=O)O [4W] (Ac-[dF][dOrn][dI][dS][dW]SS[dOrn]WSV[dI][Orn]-OH)
MIC for A. baumannii clinical isolate S3 [1]: 4 µg/mL
MIC for A. baumannii clinical isolate 1788 [2]: 2 µg/mL
MIC for A. baumannii clinical isolate S5 [3]: 4 µg/mL
MIC for A. baumannii clinical isolate 1795 [4]: 2 µg/mL
MIC for A. baumannii clinical isolate 1791 [5]: 0.5 µg/mL
MIC for A. baumannii clinical isolate 1797 [6]: 2 µg/mL
MIC for A. baumannii clinical isolate 1790 [7]: 0.5 µg/mL
MIC, toxicity assessment, C. albicans (C. albicans): 128 µg/mL (≈ 80.2 µM)
MIC Pseudomonas aeruginosa (Pseudomonas aeruginosa): 16 µg/mL (≈ 10 µM)
MIC Bacillus subtilis (Bacillus subtilis): 1 µg/mL (≈ 0.627 µM)
MIC Lactobacillus rhamnosus (Lactobacillus rhamnosus): 2 µg/mL (≈ 1.25 µM)
MIC Staphylococcus aureus (Staphylococcus aureus): 4 µg/mL (≈ 2.51 µM)
MIC Enterococcus faecium (Enterococcus faecium; 24 h): 32 µg/mL (≈ 20.1 µM)
MIC Streptococcus sobrinus (Streptococcus sobrinus): 2 µg/mL (≈ 1.25 µM)
MIC Enterobacter cloacae (Enterobacter cloacae): 2 µg/mL (≈ 1.25 µM)
MIC Klebsiella pneumoniae (Klebsiella pneumoniae): 2 µg/mL (≈ 1.25 µM)
MIC Acinetobacter baumannii (Acinetobacter baumannii; 24 h): 1 µg/mL (≈ 0.627 µM)
MIC Enterococcus faecalis (Enterococcus faecalis): 4 µg/mL (≈ 2.51 µM)

Compound: CC[C@@H](C)[C@@H](NC(=O)[C@@H](NC(=O)[C@H](CO)NC(=O)[C@H](Cc1c[nH]c2ccccc12)NC(=O)[C@@H](CCCN)NC(=O)[C@H](CO)NC(=O)[C@H](CO)NC(=O)[C@@H](Cc1c[nH]c2ccccc12)NC(=O)[C@@H](CO)NC(=O)[C@H](NC(=O)[C@@H](CCCN)NC(=O)[C@H](N)Cc1ccccc1)[C@H](C)CC)C(C)C)C(=O)N[C@@H](CCCN)C(=O)O [5W] (H-[dF][dOrn][dI][dS][dW]SS[dOrn]WSV[dI][Orn]-OH)
MIC Pseudomonas aeruginosa (Pseudomonas aeruginosa): 16 µg/mL (≈ 10.3 µM)
MIC Bacillus subtilis (Bacillus subtilis): 2 µg/mL (≈ 1.29 µM)
MIC Lactobacillus rhamnosus (Lactobacillus rhamnosus): 4 µg/mL (≈ 2.57 µM)
MIC Staphylococcus aureus (Staphylococcus aureus): 8 µg/mL (≈ 5.15 µM)
MIC Enterococcus faecium (Enterococcus faecium; 24 h): 8 µg/mL (≈ 5.15 µM)
MIC Streptococcus sobrinus (Streptococcus sobrinus): 4 µg/mL (≈ 2.57 µM)
MIC Enterobacter cloacae (Enterobacter cloacae): 4 µg/mL (≈ 2.57 µM)
MIC Klebsiella pneumoniae (Klebsiella pneumoniae): 4 µg/mL (≈ 2.57 µM)
MIC Acinetobacter baumannii (Acinetobacter baumannii; 24 h): 4 µg/mL (≈ 2.57 µM)
MIC Enterococcus faecalis (Enterococcus faecalis): 4 µg/mL (≈ 2.57 µM)

Compound: CN(C)[C@@H]1C(O)=C(C(N)=O)C(=O)[C@@]2(O)C(O)=C3C(=O)c4c(O)cccc4[C@@](C)(O)[C@H]3C[C@@H]12 [tetracycline, reference compound]
MIC [8]: 0.25 µg/mL (≈ 0.563 µM)
bacterial burden of wound, day 3 [9]: 6.4 ± 0.31 log CFU

— publication PMC5784245, “An Optimized Synthetic-Bioinformatic Natural Product Antibiotic Sterilizes Multidrug-Resistant Acinetobacter baumannii-Infected Wounds” (mSphere, 2018)
